Experimental data: US5814634A, “Alkylenediamine derivative anti-ulcer drug and antibacterial drug” (Shiseido Co. Ltd., priority 1996, dated 1998)

Columns and labels:
[1] = in vitro; conditions: rabbit, gastric mucosal cells
[2] = system: stress ulcer; assay: WIS: Restraint and Water Immersion Stress-Induced Ulcer Inhibition Test; format: in vivo, rat (male Crj:SD or Slc:SD); conditions: for WIS: ulcer formation inhibitory rate: 100 mg/kg oral, rats, water immersion stress 7 hours; for effect (anti-ulcer tests): comparison of examples within compound group 1-1
Experimental: WIS: Restraint and Water Immersion Stress-Induced Ulcer Inhibition Test
The degree of inhibition of the stress ulcer formation is tested.
Male Crj:SD or Slc:SD rats (6 to 7-week-old) were fasted overnight, but allowed free access to water. Each group has 5 to 8 of these rats. The sample compound was dissolved or suspended in an aqueous solution of 0.3% sodium carboxymethylcellulose or 0.05% Tween 80 and then was orally administered (100 mg/10 ml/kg). To a control group, the vehicle was administered. 10 minutes later, the rats were placed in a stress cage and immersed to the level of xipfoid process in a water bath (21° C.) for 7 hours. At the end of the stress, the rats were sacrificed by inhalation of ether or carbon dioxide. Then, the stomach of each was removed, inflated by injecting 10 ml of 5% formalin neutral buffer solution, and immersed in 1% formalin neutral buffer solution for 30 minutes or more to be fixed. The stomach was incised along the greater curvature and then the length of each erosion in the glandular portion was determined under dissecting microscope. The sum of the length of erosions per stomach was defined as ulcer index (UI).
The effect obtained when 100 mg/kg of the sample compound had been administered was expressed as ulcer formation inhibitory rate (%) as follows: [formula] VOL, TAO: Acid Secretion Inhibition Test In Vivo i) Meaning

[3] = system: isolated gastric fundic gland; assay: CAP: Acid Secretion Inhibition Test In Vitro ([14C]-aminopyrine uptake); format: cell-based, rabbit (male Japanese White); conditions: Oryctolagus cuniculus, 40 min; 10^-5 M compound, 10^-5 M histamine, rabbit isolated gastric fundic gland, 37° C., 40 minutes; read-out: CAP: acid secretion inhibitory rate
Experimental: With respect to the gastric juice volume (VOL) and the total acid output (TAO), the effects obtained when 100 mg/kg of the sample compound had been administered were expressed as their respective inhibitory rates (%) as follows: [formula] CAP: Acid Secretion Inhibition Test In Vitro i) Meaning
The acid secretion inhibitory activity in a cell level is studied. It can also be used for studying the mechanism of the effect.
ii-a) Preparation of isolated gastric fundus gland suspension
First, an isolated gastric fundic gland sample was prepared. […] Immediately thereafter, the stomach was removed and, after its pyloric and cardiac antrum were severed, incised along its greater curvature into two sheets. The gastric contents adhering to the mucosal surface was washed out with ice-cooled PBS (-) and then carefully washed therein. The gastric wall was spread on a cork board with its mucosal surface facing up and the feed and mucus thereon were completely removed with sterile gauze. The mucosa was separated therefrom by a spatula and then collected in ice-cooled PBS (-). After being washed twice with PBS (-), the mucosa was minced into 2-3 mm^3 pieces by scissors. These pieces were further washed twice with a nutrient solution. The nutrient solution comprises 132.4 mM of NaCl, 5.4 mM of KCl, 5 mM of Na2 HPO4.12H2 O, 1 mM of NaH2 PO4.2H2 O, 1.2 mM of MgSO4, 1 mM of CaCl2, 25 mM of HEPES, 2 mg/ml of glucose, and 1 mg/ml of BSA. Into 70 ml of the nutrient solution containing 1 mg/ml of collagenase, minced mucosal pieces were dispersed and intensely stirred in a conical flask with a stirrer at 37° C. for 40 to 60 minutes. During this period, 100% O2 was sprayed on the nutrient solution surface and the pH was appropriately measured such that it was immediately adjusted to pH 7.4, when the value was therebelow, with a base. The nutrient solution was added to the reaction solution so as to attain the total amount of about 200 ml. After being filtered through a mesh, the suspension was divisionally introduced into 50 ml centrifuge tubes and left for 15 minutes such that gastric fundic gland was deposited. The supernatant was repeatedly removed by an aspirator, dispersed in the nutrient solution, and then left such that the gastric fundic gland was washed three times. At this time, without using a pipette, the suspension was alternately introduced into two centrifuge tubes so as to effect dispersion. The number of cells was counted under microscope and adjusted to 1.6×10^6 cells/ml.
ii-b) [^14 C]-aminopyrine uptake test
Then, [^14 C]-aminopyrine uptake test was performed. After an Eppendorf tube was weighed, 10 μl (final concentration: 10^-5 M) of histamine dissolved in the above-mentioned nutrient solution, 10 μl (final concentration: 10^-5 M) of the test compound dissolved in DMSO, and 10 μl (final concentration: 0.05 μCi/ml) of [^14 C]-aminopyrine diluted with the nutrient solution were introduced therein and then 970 μl of the isolated gastric fundic gland suspension prepared above was added thereto. Subsequently, this mixture was shaken at 37° C. for 40 minutes at 125 cycles/minute. After being centrifuged for 30 minutes, 200 μl of its supernatant was collected into a mini-vial, while the rest was removed by an aspirator. The gland pellet was completely dried as the tube with its lid being opened was kept for one night in a drying oven at 80° C. and then the lid was closed and the weight was determined at room temperature. Then 100 μl of 1N KOH was added thereto and the tube with its lid being closed was treated at 60° C. for 1 to 2 hours so as to dissolve the pellet. Then, the contents thereof were transferred to a mini-vial. Into the mini-vial containing the supernatant or gland pellet, 4 ml of Atomlite™ was added and then the radioactivity was measured by a liquid scintillation counter. […]

[4] = system: Male Slc:ICR mice; design: species or system mouse (male Slc:ICR); conditions: mouse, in vivo
Experimental: AT: Single Dose Toxicity Pretest
Male Slc:ICR mice (5-week-old) were used. Each group has 3 to 5 mice and each mouse was fasted, but allowed free access to water, for 4 to 5 hours from 9 a.m. in the test day. Then, 2,000 mg/10 ml/kg of the sample compound dissolved or suspended in an aqueous solution of 0.5% sodium carboxymethyl cellulose was orally administered thereto. To a control, only the vehicle was administered. […] The body weight was measured before and after the fasting as well as at the same time everyday. The dead animals were immediately subjected to autopsy and their organs were observed microscopically. Also, the living animals were sacrificed with ether or carbon dioxide one week after the administration and then their organs were observed microscopically.
The toxicity at the single dose of 2,000 mg/kg of the sample compound was expressed as being classified into 5 levels.
5: Mortality rate is 0%; no toxicity is found at all both in behavior and organs.
4: Mortality rate is 0%; while no toxicity is found in organs, slight toxicity is observed in behavior and body weight increase.
3: While there is a dead animal (though not all the animals are dead), no toxicity is found in organs.
2: Regardless of whether there is a dead animal or not, toxicity is found in organs.
1: All the animals are dead.

## COc1ccc(C(=O)NCCN2CCCCC2)c(OC/C=C(\C)CCC=C(C)C)c1 [Example 22]
[1]
  cytotoxicity at 4 h, 100 µM: 44%
[2]
  WIS: ulcer formation inhibitory rate: 39%

## CC(C)=CCC/C(C)=C/COc1ccc(C(=O)NCCN2CCCC(C)(C)C2)cc1 [Example 9]
[2]
  WIS: ulcer formation inhibitory rate: 67%
[2]; result in words
  effect (anti-ulcer tests): a sufficient effect can be obtained

## CC(C)=CCC/C(C)=C/COc1ccc(C(=O)NCCN2CCN(Cc3ccc(F)cc3)CC2)cc1 [Example 57]
[3]
  inhibition at 10 µM: 99.4%

## CC(C)=CCOc1ccc(C(=O)NCCN2CCCCC2)cc1OCC=C(C)C [Example 15]
[1]
  cytotoxicity at 4 h, 100 µM: 17%
[2]
  WIS: ulcer formation inhibitory rate: 89%

## CC(C)=CCC/C(C)=C/COc1ccccc1C(=O)NCCN1CCCCC1 [Example 5]
[1]
  cytotoxicity at 4 h, 100 µM: 21%
[2]
  WIS: ulcer formation inhibitory rate: 78%

## CC(C)=CCC/C(C)=C/COc1ccc(C(=O)NCCN2CCN(Cc3ccccc3)CC2)cc1 [Example 56]
[3]
  inhibition at 10 µM: 99.4%

## COc1ccc(N2CCN(CCNC(=O)c3ccc(OC/C=C(\C)CCC=C(C)C)cc3)CC2)cc1 [Example 53]
[1]
  cytotoxicity at 4 h, 100 µM: 7%
[3]
  inhibition at 10 µM: 98.7%

## CC(C)=CCC/C(C)=C/COc1ccc(C(=O)NCCN2CCN(c3nccs3)CC2)cc1 [Example 60]
[1]
  cytotoxicity at 4 h, 100 µM: 7%
[3]
  inhibition at 10 µM: 100%

## CC(C)=CCC/C(C)=C/COc1ccc(C(=O)NCCN2CCN(CC(C)(C)C)CC2)cc1 [Example 48]
[3]
  inhibition at 10 µM: 100%

## CC(C)=CCC/C(C)=C/COc1ccc(C(=O)NCCN2CCCCC2)c(OC/C=C(\C)CCC=C(C)C)c1 [Example 12]
[1]
  cytotoxicity at 4 h, 100 µM: 38%
[2]
  WIS: ulcer formation inhibitory rate: 75%

## CC(C)=CCOc1cc(OCC=C(C)C)cc(C(=O)NCCN2CCCCC2)c1 [Example 18]
[1]
  cytotoxicity at 4 h, 100 µM: 33%
[2]
  WIS: ulcer formation inhibitory rate: 40%

## CC(C)=CCC/C(C)=C/COc1ccc(C(=O)NCCN2CCOCC2)cc1OC/C=C(\C)CCC=C(C)C [Example 36]
[2]
  WIS: ulcer formation inhibitory rate: 39%

## CC(C)=CCC/C(C)=C\COc1ccc(C(=O)NCCN2CCCCC2)cc1 [Example 2]
[4]
  AT: toxicity at single dose, 5 levels: 3
[2]
  WIS: ulcer formation inhibitory rate: 79%

## CC(C)=CCC/C(C)=C/CSc1ccccc1C(=O)NCCN1CCOCC1 [Example 33]
[1]
  cytotoxicity at 4 h, 100 µM: 5%
[2]
  WIS: ulcer formation inhibitory rate: 49%
[3]
  inhibition at 10 µM: 100%

## COc1ccc(OC/C=C(\C)CCC=C(C)C)c(C(=O)NCCN2CCOCC2)c1 [Example 40]
[2]
  WIS: ulcer formation inhibitory rate: 70%

## CCN1CCN(CCNC(=O)c2ccc(OC/C=C(\C)CCC=C(C)C)cc2)CC1 [Example 45]
[1]
  cytotoxicity at 4 h, 100 µM: 30%
[2]
  WIS: ulcer formation inhibitory rate: 36%
[3]
  inhibition at 10 µM: 99%

## CC(C)=CCC/C(C)=C/COc1cccc(C(=O)NCCN2CCCCC2)c1 [Example 4]
[4]
  AT: toxicity at single dose, 5 levels: 3
[2]
  WIS: ulcer formation inhibitory rate: 84%

## CCN(CCN1CCCCC1)C(=O)c1ccc(OC/C=C(\C)CCC=C(C)C)cc1 [Example 8]
[1]
  cytotoxicity at 4 h, 100 µM: 41%
[2]
  WIS: ulcer formation inhibitory rate: 67%
[2]; result in words
  effect (anti-ulcer tests): a sufficient effect can be obtained
[3]
  inhibition at 10 µM: 100%

## CCCCC(CC)CN1CCN(CCNC(=O)c2ccc(OC/C=C(\C)CCC=C(C)C)cc2)CC1 (centres unmarked) [Example 51]
[3]
  inhibition at 10 µM: 94.8%

## CC(C)=CCC/C(C)=C/COc1ccc(C(=O)NCCN2CCOCC2)c(OC/C=C(\C)CCC=C(C)C)c1 [Example 37]
[2]
  WIS: ulcer formation inhibitory rate: 71%

## CC(C)=CCC/C(C)=C/COc1ccc(C(=O)NCCN2CCN(c3ncccn3)CC2)cc1 [Example 61]
[1]
  cytotoxicity at 4 h, 100 µM: 3%
[3]
  inhibition at 10 µM: 100%

## CC(C)=CCC/C(C)=C/COc1ccc(C(=O)NCCN2CCN(CCC(C)C)CC2)cc1 [Example 47]
[3]
  inhibition at 10 µM: 101%

## COc1cccc(C(=O)NCCN2CCCCC2)c1OC/C=C(\C)CCC=C(C)C [Example 21]
[1]
  cytotoxicity at 4 h, 100 µM: 12%
[2]
  WIS: ulcer formation inhibitory rate: 68%

## COc1cc(C(=O)NCCN2CCOCC2)cc(OC)c1OCC=C(C)C [Example 41]
[2]
  WIS: ulcer formation inhibitory rate: 39%

## COc1cc(C(=O)NCCN2CCCCC2)cc(OC)c1OC/C=C(\C)CCC=C(C)C [Example 26]
[1]
  cytotoxicity at 4 h, 100 µM: 17%
[2]
  WIS: ulcer formation inhibitory rate: 72%
[2]; result in words
  anti-ulcer effect: more anti-ulcer effect

## CC(C)=CCC/C(C)=C/COc1ccc(C(=O)NCCN2CCN(CC(=O)NC(C)C)CC2)cc1 [Example 54]
[3]
  inhibition at 10 µM: 100%

## CC(C)=CCC/C(C)=C/COc1ccccc1C(=O)NCCN1CCOCC1 [Example 30]
[2]
  WIS: ulcer formation inhibitory rate: 68%

## CC(C)=CCC/C(C)=C/COc1ccc(C(=O)NCCN2CCN(Cc3ccc4c(c3)OCO4)CC2)cc1 [Example 58]
[2]
  WIS: ulcer formation inhibitory rate: 48%
[3]
  inhibition at 10 µM: 100%

## CC(C)=CCC/C(C)=C/COc1cc(OC/C=C(\C)CCC=C(C)C)cc(C(=O)NCCN2CCOCC2)c1 [Example 38]
[1]
  cytotoxicity at 4 h, 100 µM: -12%
[2]
  WIS: ulcer formation inhibitory rate: 55%

## CCC(CC)CN1CCN(CCNC(=O)c2ccc(OC/C=C(\C)CCC=C(C)C)cc2)CC1 [Example 49]
[3]
  inhibition at 10 µM: 99.8%

## CC(C)=CCOc1ccc(C(=O)NCCN2CCCCC2)c(OCC=C(C)C)c1 [Example 16]
[1]
  cytotoxicity at 4 h, 100 µM: 18%
[2]
  WIS: ulcer formation inhibitory rate: 59%

## CC(C)=CCC/C(C)=C/COc1ccc(C(=O)NCCN2CCN(c3ccccc3)CC2)cc1 [Example 52]
[1]
  cytotoxicity at 4 h, 100 µM: 11%
[3]
  inhibition at 10 µM: 99.1%

## CCCCN1CCN(CCNC(=O)c2ccc(OC/C=C(\C)CCC=C(C)C)cc2)CC1 [Example 50]
[3]
  inhibition at 10 µM: 95.9%

## CC(C)=CCOc1ccc(C(=O)NCCN2CCCCC2)cc1 [Example 1]
[1]
  cytotoxicity at 4 h, 100 µM: 1%
[2]
  WIS: ulcer formation inhibitory rate: 67%

## CC(C)=CCC/C(C)=C/CSc1ccccc1C(=O)NCCN1CCCCC1 [Example 7]
[2]
  WIS: ulcer formation inhibitory rate: 87%
[2]; result in words
  effect (anti-ulcer tests): the effect has been maintained
